Literature values in patent publication US20220213156A1, “Peptides for use in therapy or prophylaxis of Herpesviridae-infections” (priority 2019, published 2022).
Where “and” joins values, the source holds several entries; their conditions need not be identical. Equal values may be shown once.

Tested on: multidrug resistant CMV isolate (H815-2006)
Details: isolate H815-2006 with UL97 L595S and UL54 V715M; cited from earlier work

For Nc1nc(O)c2ncn(COC(CO)CO)c2n1 [GCV, Ganciclovir], the IC50 is listed as > 30 µM and 31.5 µM.
